IC50 data for 25 compounds are collected here from patent publication US8541588B2, “Sulfonamide derivatives” (Pfizer Limited, priority 2009, dated 2013).

T1 sequence (Q15858 whole entry): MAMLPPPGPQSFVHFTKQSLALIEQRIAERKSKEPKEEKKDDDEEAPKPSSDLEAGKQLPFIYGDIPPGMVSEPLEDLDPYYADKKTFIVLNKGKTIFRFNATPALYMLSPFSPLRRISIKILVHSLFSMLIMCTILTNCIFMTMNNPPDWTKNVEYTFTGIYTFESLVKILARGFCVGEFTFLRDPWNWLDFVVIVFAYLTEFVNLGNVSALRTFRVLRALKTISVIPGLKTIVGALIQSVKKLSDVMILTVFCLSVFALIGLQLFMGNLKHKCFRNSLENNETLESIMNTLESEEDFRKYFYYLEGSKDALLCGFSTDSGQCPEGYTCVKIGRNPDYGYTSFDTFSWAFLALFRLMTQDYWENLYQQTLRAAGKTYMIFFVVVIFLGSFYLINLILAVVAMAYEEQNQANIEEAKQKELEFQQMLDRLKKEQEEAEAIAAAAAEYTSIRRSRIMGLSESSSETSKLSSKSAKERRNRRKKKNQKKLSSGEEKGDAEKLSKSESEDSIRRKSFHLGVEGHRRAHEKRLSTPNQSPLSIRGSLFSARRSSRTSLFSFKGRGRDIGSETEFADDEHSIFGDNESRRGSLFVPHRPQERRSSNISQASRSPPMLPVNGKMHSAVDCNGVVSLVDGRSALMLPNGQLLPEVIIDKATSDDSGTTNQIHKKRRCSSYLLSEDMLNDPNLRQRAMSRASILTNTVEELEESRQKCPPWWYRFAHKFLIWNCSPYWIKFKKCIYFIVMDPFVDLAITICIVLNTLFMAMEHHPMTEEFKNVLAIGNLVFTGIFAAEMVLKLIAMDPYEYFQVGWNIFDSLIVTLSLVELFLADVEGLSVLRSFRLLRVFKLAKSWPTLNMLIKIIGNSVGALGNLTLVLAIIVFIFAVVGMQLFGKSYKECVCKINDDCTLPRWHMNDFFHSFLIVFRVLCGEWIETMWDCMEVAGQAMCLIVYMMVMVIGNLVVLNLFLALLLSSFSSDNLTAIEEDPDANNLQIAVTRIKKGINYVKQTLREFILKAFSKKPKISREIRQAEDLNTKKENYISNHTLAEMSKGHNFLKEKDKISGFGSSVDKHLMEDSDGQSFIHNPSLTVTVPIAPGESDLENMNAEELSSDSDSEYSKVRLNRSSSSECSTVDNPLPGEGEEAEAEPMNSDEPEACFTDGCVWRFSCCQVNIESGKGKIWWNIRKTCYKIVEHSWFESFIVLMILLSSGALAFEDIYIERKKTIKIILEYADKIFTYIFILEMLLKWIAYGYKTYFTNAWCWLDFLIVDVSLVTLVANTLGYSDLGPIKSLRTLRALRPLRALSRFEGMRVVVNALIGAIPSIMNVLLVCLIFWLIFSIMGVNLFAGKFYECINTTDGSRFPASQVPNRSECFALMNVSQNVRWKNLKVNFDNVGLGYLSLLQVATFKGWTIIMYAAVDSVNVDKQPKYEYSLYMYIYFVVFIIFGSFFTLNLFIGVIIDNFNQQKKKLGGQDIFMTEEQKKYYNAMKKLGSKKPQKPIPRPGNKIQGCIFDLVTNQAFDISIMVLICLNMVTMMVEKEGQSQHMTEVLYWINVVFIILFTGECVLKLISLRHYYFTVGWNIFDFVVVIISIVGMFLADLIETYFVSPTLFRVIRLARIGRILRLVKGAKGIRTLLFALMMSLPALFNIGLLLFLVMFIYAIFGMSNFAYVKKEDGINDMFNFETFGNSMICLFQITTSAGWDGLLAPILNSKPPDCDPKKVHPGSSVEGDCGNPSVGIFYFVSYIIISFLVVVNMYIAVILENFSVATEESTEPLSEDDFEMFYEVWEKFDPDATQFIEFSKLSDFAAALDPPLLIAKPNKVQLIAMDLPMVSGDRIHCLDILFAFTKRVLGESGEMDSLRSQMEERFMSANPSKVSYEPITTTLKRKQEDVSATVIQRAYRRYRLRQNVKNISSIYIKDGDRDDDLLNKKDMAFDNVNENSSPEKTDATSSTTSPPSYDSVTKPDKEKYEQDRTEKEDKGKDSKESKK

One assay has as its target T1, Nav1.7 (or SCN9A) channel; HEK cells stably transfected with hSCN9A (Homo sapiens, UniProt Q15858).
T1 construct: expressed in transfected cells
The assay is described as follows: Nav1.7 block, PatchXpress 7000 automated whole-cell voltage clamp, estimated IC50 (EIC50). In kind it is cell-based. The note with it: PatchXpress platform; hSCN9A HEK cells held at V1/2 of inactivation; estimated IC50.
For the compound `N#Cc1cc(S(=O)(=O)Nc2nccs2)ccc1Oc1cccc(Cl)c1-c1ccn[nH]1` [Example 199, 4-[3-chloro-2-(2H-pyrazol-3-yl)-phenoxy]-3-cyano-N-thiazol-2-yl-benzenesulfonamide], the IC50 was 0.11 µM.
The same measure, in the same setting: the same measure for `N#Cc1cc(S(=O)(=O)Nc2ncns2)ccc1Oc1cc(Cc2ccc(Cl)cc2)nn1CC(N)=O` [Example 93, 2-[3-(4-chlorobenzyl)-5-{2-cyano-4-[(1,2,4-thiadiazol-5-ylamino)sulfonyl]phenoxy}-1H-pyrazol-1-yl]acetamide]: 1.57 µM.
Still for that read-out and setting: the same measure for `O=S(=O)(Nc1ncns1)c1ccc(Oc2ccccc2-c2ccccc2)cc1C(F)(F)F` [Example 260, 4-(biphenyl-2-yloxy)-N-1,2,4-thiadiazol-5-yl-2-(trifluoromethyl)benzenesulfonamide]: 15.9 µM.
Still for that read-out and setting: the same measure for `O=S(=O)(Nc1ncns1)c1ccc(Oc2ccccc2-c2ccccc2)c(Cl)c1` [Example 150, 4-(biphenyl-2-yloxy)-3-chloro-N-1,2,4-thiadiazol-5-ylbenzenesulfonamide]: 0.19 µM; for `N#Cc1cc(S(=O)(=O)Nc2nccs2)ccc1Oc1ccccc1-c1nnco1` [Example 173, 4-(2-(1,3,4-oxadiazol-2-yl)phenoxy)-3-cyano-N-(thiazol-2-yl)benzenesulfonamide]: 2.09 µM.
`N#Cc1cc(S(=O)(=O)Nc2nccs2)ccc1Oc1cnn(Cc2ccc(Cl)cc2)c1` [Example 167, 4-(1-(4-chlorobenzyl)-1H-pyrazol-4-yloxy)-3-cyano-N-(thiazol-2-yl)benzenesulfonamide]: the IC50 is listed as 0.75 µM.
Regarding `Cn1nccc1-c1cc(Cl)cc(Cl)c1Oc1ccc(S(=O)(=O)Nc2ncns2)cc1C#N` [Example 71, 3-cyano-4-[2,4-dichloro-6-(1-methyl-1H-pyrazol-5-yl)phenoxy]-N-1,2,4-thiadiazol-5-ylbenzenesulfonamide], the IC50 is 12.5 µM.
Turning to `Cn1cc(-c2ccccc2)c(Oc2ccc(S(=O)(=O)Nc3nccs3)cc2F)n1` [Example 233, 3-fluoro-4-(1-methyl-4-phenyl-1H-pyrazol-3-yloxy)-N-(thiazol-2-yl)benzenesulfonamide], the IC50 was 3.49 µM.
On to `Cn1nccc1-c1cc(F)ccc1Oc1ccc(S(=O)(=O)Nc2nccs2)cc1C#N` [Example 169, 3-cyano-4-(4-fluoro-2-(1-methyl-1H-pyrazol-5-yl)phenoxy)-N-(thiazol-2-yl)benzenesulfonamide], for which the IC50 is 0.05 µM.
In the case of `Cc1cc(S(=O)(=O)Nc2nccs2)ccc1Oc1ccccc1-c1ccccc1` [Example 258, 4-(biphenyl-2-yloxy)-3-methyl-N-1,3-thiazol-2-ylbenzenesulfonamide], the IC50 is 1.02 µM.

Still in this assay, the particulars now being: estimated IC50; hSCN9A HEK cells, PatchXpress platform; Examples 283-814.
As for `Cn1nc(-c2ccc(Oc3ccc(S(=O)(=O)Nc4nccs4)cc3C#N)cc2)cc1C(F)(F)F` [Example 371, 3-cyano-4-{4-[1-methyl-5-(trifluoromethyl)-1H-pyrazol-3-yl]phenoxy}-N-1,3-thiazol-2-ylbenzenesulfonamide], the IC50 is 1.8 µM.
The same measure, in the same setting: the result for `N#Cc1cc(S(=O)(=O)Nc2ncns2)ccc1Oc1ccc(I)cc1-c1cn[nH]c1` [Example 289, 3-cyano-4-[4-iodo-2-(1H-pyrazol-4-yl)phenoxy]-N-1,2,4-thiadiazol-5-ylbenzenesulfonamide] reads 0.39 µM; that for `Nc1cccc(-c2cc(F)ccc2Oc2cc(F)c(S(=O)(=O)Nc3ncns3)cc2Cl)n1` [Example 617, 4-[2-(6-aminopyridin-2-yl)-4-fluorophenoxy]-5-chloro-2-fluoro-N-1,2,4-thiadiazol-5-ylbenzenesulfonamide], 0.03 µM.
The same measure, in the same setting: the result for `N#Cc1cc(S(=O)(=O)Nc2nccs2)ccc1Oc1ccc(-c2cc(C(F)(F)F)nn2CCCF)cc1F` [Example 551, 3-cyano-4-{2-fluoro-4-[1-(3-fluoropropyl)-3-(trifluoromethyl)-1H-pyrazol-5-yl]phenoxy}-N-1,3-thiazol-2-ylbenzenesulfonamide] reads 0.071 µM; that for `N#Cc1cc(S(=O)(=O)Nc2ccc(F)cn2)ccc1Oc1ccc(-c2cocn2)cc1` [Example 581, 3-cyano-N-(5-fluoropyridin-2-yl)-4-[4-(1,3-oxazol-4-yl)phenoxy]benzenesulfonamide], more than 3 µM.
In the case of `CCn1nc(C(F)(F)F)cc1-c1ccc(Oc2ncc(S(=O)(=O)Nc3nccs3)cc2C#N)cc1` [Example 740, 5-cyano-6-{4-[1-ethyl-3-(trifluoromethyl)-1H-pyrazol-5-yl]phenoxy}-N-1,3-thiazol-2-ylpyridine-3-sulfonamide], the IC50 was 0.40 µM.
The same measure, in the same setting: the result for `CN1CC(n2nccc2-c2cc(F)ccc2Oc2cc(F)c(S(=O)(=O)Nc3ncns3)cc2Cl)C1` [Example 806, 5-Chloro-2-fluoro-4-{4-fluoro-2-[1-(1-methylazetidin-3-yl)-1H-pyrazol-5-yl]phenoxy}-N-1,2,4-thiadiazol-5-ylbenzenesulfonamide] reads 0.0054 µM; that for `CCNC(=O)c1ccc(-c2cccc(Oc3ccc(S(=O)(=O)Nc4ccc(F)cn4)cc3C#N)c2)cc1` [Example 570, 3′-(2-cyano-4-{[(5-fluoropyridin-2-yl)amino]sulfonyl}phenoxy)-N-ethylbiphenyl-4-carboxamide], 8.6 µM; that for `Cn1nccc1-c1cc(F)ccc1Oc1cc(F)c(S(=O)(=O)Nc2nncs2)cc1Cl` [Example 298, 5-chloro-2-fluoro-4-[4-fluoro-2-(1-methyl-1H-pyrazol-5-yl)phenoxy]-N-1,3,4-thiadiazol-2-ylbenzenesulfonamide], 0.14 µM.
On the same count and under the same terms, the same measure for `O=S(=O)(Nc1cscn1)c1ccc(Oc2ccc(Cl)cc2-c2cn[nH]c2)cc1F` [Example 680, 4-[4-chloro-2-(1H-pyrazol-4-yl)phenoxy]-2-fluoro-N-1,3-thiazol-4-ylbenzenesulfonamide]: 1 µM.

The assay is the same for the next values; noted with them: estimated IC50; hSCN9A HEK cells, PatchXpress platform; Examples 815-1040.
As to `N#Cc1cc(S(=O)(=O)Nc2nncs2)ccc1Oc1ccc(Cl)cc1-c1ccnnc1` [Example 832, 4-(4-chloro-2-pyridazin-4-ylphenoxy)-3-cyano-N-1,3,4-thiadiazol-2-ylbenzenesulfonamide], the 50% inhibitory concentration (IC50) is 0.42 µM.
On the same count and under the same terms, the result for `N#Cc1cc(S(=O)(=O)Nc2ncns2)ccc1Oc1ccc(Cl)cc1-c1cnco1` [Example 967, 4-[4-chloro-2-(1,3-oxazol-5-yl)phenoxy]-3-cyano-N-1,2,4-thiadiazol-5-ylbenzenesulfonamide] reads 0.027 µM; that for `Cn1nccc1-c1cc(Cl)ccc1Oc1ccc(S(=O)(=O)/N=c2\sccn2COP(=O)(O)O)cc1C#N` [Example 1039, [(2Z)-2-[({4-[4-Chloro-2-(1-methyl-1H-pyrazol-5-yl)phenoxy]-3-cyanophenyl}sulfonyl)imino]-1,3-thiazol-3(2H)-yl]methyl dihydrogen phosphate], 0.31 µM.
Regarding `N#Cc1ccc(-c2ccnnc2)c(Oc2cc(F)c(S(=O)(=O)Nc3ncns3)cc2Cl)c1` [Example 951, 5-chloro-4-(5-cyano-2-pyridazin-4-ylphenoxy)-2-fluoro-N-1,2,4-thiadiazol-5-ylbenzenesulfonamide], the IC50 was 0.04 µM.
As to `O=C(c1cccc(-c2cc(Cl)ccc2Oc2cc(F)c(S(=O)(=O)Nc3ncns3)cc2Cl)c1)N1CCC1` [Example 823, 4-{[3′-(azetidin-1-ylcarbonyl)-5-chlorobiphenyl-2-yl]oxy}-5-chloro-2-fluoro-N-1,2,4-thiadiazol-5-ylbenzenesulfonamide], the half-inhibitory concentration (IC50) is 0.0074 µM.
